The record followed here is patent publication US4543349A, “Basic heptapeptide vasopressin antagonists” (priority 1984, dated 1985).

Starred links: 1 amine or outer side, 2 acyl side, 3 side chain; linkers in the order of their positions; H or OH if unused. Positions of bridges follow the written chain, without caps; N, C: chain ends. Non-standard residues stand in square brackets, D forms with d. Residues, ends and D or L forms follow the SMILES beside them. *: point of attachment. X1 = O=C(CC1(S[*:2])CCCCC1)[*:1]; Agmatine = N=C(N)NCCCCN*; NH(CH2)5NH2 = NCCCCCN*; NH(CH2)4NH2 = NCCCCN*

The target in assay [1] is T1, vasopressin receptors (V2 -receptors) (Sus scrofa, UniProt P32307).
T1 construct: from tissue; host or cells: hog kidney medullary membranes
T1 sequence (P32307 whole entry): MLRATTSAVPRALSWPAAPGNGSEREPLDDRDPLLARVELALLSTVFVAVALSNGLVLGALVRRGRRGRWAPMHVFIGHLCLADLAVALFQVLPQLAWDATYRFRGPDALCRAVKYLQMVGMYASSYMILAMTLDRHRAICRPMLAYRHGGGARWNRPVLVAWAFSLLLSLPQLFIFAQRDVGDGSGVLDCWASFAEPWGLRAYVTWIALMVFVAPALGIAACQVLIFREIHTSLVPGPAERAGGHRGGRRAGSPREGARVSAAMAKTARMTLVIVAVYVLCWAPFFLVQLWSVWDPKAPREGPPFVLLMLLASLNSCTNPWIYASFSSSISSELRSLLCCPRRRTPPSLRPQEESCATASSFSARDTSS
The assay can be described thus: 3H-vasopressin binding assay, hog kidney medullary membranes. The settings on record: competitive inhibition of 3H-vasopressin binding, read-out: Swine KB. As to the method:
Antagonistic activity toward the natural antidiuretic hormone (anti-ADH activity) is determined, in vitro, in the medullary tissue of hog or human kidneys and, in vivo, in the hydropenic rat. The in vitro assay procedures for vasopressin stimulated adenylate cyclase activation or vasopression binding activity are described by F. Stassen et al., J. Pharmacology and Experimental Therapeutics, 223, 50-54 (1982).
These values represent total and non-specific binding, respectively.

Assay [2] relates to hydropenic rat. Description: Hydropenic rat screen (anti-ADH activity in vivo). To be noted: dose required to lower urine osmolality to 300 m-Osmoles/kg; intraperitoneal; hydropenic male rats. As for the experimental part:
The assay for anti-ADH activity in vivo is the hydropenic rat protocol described below:
Food and water are removed from male rats approximately 18 hours prior to testing. Animals are housed 4 per metabolism cage. At 0 hour, the test compound is administered intraperitoneally to the test group and an equivalent volume of vehicle is administered to both control groups (fasted and non-fasted). Urine volume and osmolality are measured every hour for 4 hours. Test values are recorded as ml of urine excreted (cumulative), mEq/rat electrolyte excreted, mg/rat urea excreted, and osmolality in milli-Osmoles/kg H2 O. A tolerance test is used to determine significance. Ed300 is defined as the dose of compound (μg/kg) required to lower urine osmolality to 300 m-Osmoles/kg.

In assay [3] the target is vasopressin stimulated adenylate cyclase. Description: Vasopressin stimulated adenylate cyclase activity, hog kidney medullary tissue. It counts as biochemical. To be noted: swine kidney medullary membrane. As to the method: (§1) In the test procedure for assay of adenylate cyclase activity, the amount of ^32 P/cAMP formed in the absence of medullary membrane is determined (blank). The blank value is subtracted from all experimental data. The compound is tested for its effect on basal adenylate cyclase activity and/or on vasopressin stimulated activity. Each determination is carried out in triplicate. The Ka value is derived from a Lineweaver-Burkeplot. Rel. Vmax =(Vmax drug/Vmax vasopressin)×100. Ki =I/[Ka'/Ka)-1] where I is the concentration of the antagonist, and Ka' and Ka are the concentrations of vasopressin required to give half maximal activity of adenylate cyclase in the presence and absence of antagonist, respectively.

Assay [4] has the same target. The assay can be described thus: Vasopressin stimulated adenylate cyclase activity, human kidney medullary tissue. It counts as biochemical. To be noted: human kidney medullary membrane. As for the experimental part:
as §1

`CC(C)[C@@H]1NC(=O)[C@H](Cc2ccccc2)NC(=O)[C@@H](Cc2ccc(O)cc2)NC(=O)CC2(CCCCC2)SSC[C@@H](C(=O)N2CCC[C@H]2C(=O)NCCCCCN)NC(=O)[C@H](CC(N)=O)NC1=O` [A, [1-(β-Mercapto-β,β -cyclopentamethylenepropionic acid)-2-D-tyrosine-4-valine-8-(1,5-diaminopentane)-8-desarginine-9-desglycineamide]-vasopressin] (HELM PEPTIDE1{[dY].F.V.N.C.P.[NCCCCCN[*:1]]}|CHEM1{[O=C(CC1(S[*:2])CCCCC1)[*:1]]}$PEPTIDE1,CHEM1,1:R1-1:R1|PEPTIDE1,CHEM1,5:R3-1:R2$$$V2.0): in assay [1], the Kb was found to be 220 nM.
As to `CCOc1ccc(C[C@H]2NC(=O)CC3(CCCCC3)SSC[C@@H](C(=O)N3CCC[C@H]3C(=O)NCCCCCN)NC(=O)[C@H](CC(N)=O)NC(=O)[C@H](C(C)C)NC(=O)[C@H](Cc3ccccc3)NC2=O)cc1` [B, [1-(β-Mercapto-β,β -cyclopentamethylenepropionic acid)-2-(O--ethyl-D-tyrosine)-4-valine-8-(1,5-diaminopentane)-8-desarginine-9-desglycinamide]-vasopressin] ([dY](Et)FVNCP-{NH(CH2)5NH2}; linker N-5 via X1), the Kb in assay [1] worked out at 29 nM.
What is called Ki is the equilibrium dissociation constant of an inhibitor or competing ligand from its target. A low value points to higher affinity. Regarding `CCOc1ccc(C[C@H]2NC(=O)CC3(CCCCC3)SSC[C@@H](C(=O)N3CCC[C@H]3C(=O)NCCCCN)NC(=O)[C@H](CC(N)=O)NC(=O)[C@H](C(C)C)NC(=O)[C@H](Cc3ccccc3)NC2=O)cc1` [C, [1-(β-Mercapto-β,β -cyclopentamethylenepropionic acid)-2-(O--ethyl-D-tyrosine)-4-valine-8-(1,4-diaminobutane)-8-desarginine-9-desglycinamide]-vasopressin] ([dY](Et)FVNCP-{NH(CH2)4NH2}; linker N-5 via X1), the “Rat ED300” value in assay [2] was found to be 0.019 mg/kg. The inhibitory constant (Ki) turned out to be 6.4 nM in assay [3] and 7.5 nM in assay [4]. Moreover, in assay [1], the Kb was determined as 9.2 nM.
With `CCOc1ccc(C[C@H]2NC(=O)CC3(CCCCC3)SSC[C@@H](C(=O)N3CCC[C@H]3C(=O)O)NC(=O)[C@H](CC(N)=O)NC(=O)[C@H](C(C)C)NC(=O)[C@H](Cc3ccccc3)NC2=O)cc1` [D, [1-(β-Mercapto-β,β -cyclopentamethylenepropionic acid)-2-(O--ethyl-D-tyrosine)-4-valine-8-desarginine-9-desglycinamide]-vasopressin] ([dY](Et)FVNCP-OH; linker N-5 via X1), the Kb in assay [1] worked out at 410 nM.
On the same count and under the same terms, the value for `CC(C)[C@@H]1NC(=O)[C@H](Cc2ccccc2)NC(=O)[C@@H](Cc2ccc(O)cc2)NC(=O)CC2(CCCCC2)SSC[C@@H](C(=O)N2CCC[C@H]2C(=O)O)NC(=O)[C@H](CC(N)=O)NC1=O` [E, [1-(β-Mercapto-β,β -cyclopentamethylenepropionic acid)-2-D-tyrosine-4-valine-8-desarginine-9-desglycinamide]-vasopressin] (HELM PEPTIDE1{[dY].F.V.N.C.P}|CHEM1{[O=C(CC1(S[*:2])CCCCC1)[*:1]]}$PEPTIDE1,CHEM1,1:R1-1:R1|PEPTIDE1,CHEM1,5:R3-1:R2$$$V2.0) was 17000 nM; that for `CCOc1ccc(C[C@H]2NC(=O)CC3(CCCCC3)SSC[C@@H](C(=O)NCCCCCN)NC(=O)[C@H](CC(N)=O)NC(=O)[C@H](C(C)C)NC(=O)[C@H](Cc3ccccc3)NC2=O)cc1` [F, [1-(β-Mercapto-β,β -cyclopentamethylenepropionic acid)-2-(O--ethyl-D-tyrosine)-4-valine-7-desproline-8-desarginine-9-desglycinamide-7-(1,5-diaminopentane)]-vasopressin] was 19 nM; that for `CCOc1ccc(C[C@H]2NC(=O)CC3(CCCCC3)SSC[C@@H](C(=O)N3CCC[C@H]3C(=O)NCCCCN=C(N)N)NC(=O)[C@H](CC(N)=O)NC(=O)[C@H](C(C)C)NC(=O)[C@H](Cc3ccccc3)NC2=O)cc1` [G, [1-(β-Mercapto-β,β -cyclopentamethylenepropionic acid)-2-(O--ethyl-D-tyrosine)-4-valine-8-desarginine-9-desglycinamide-8-(1,4-aminoguanidinobutane)]-vasopressin] ([dY](Et)FVNCP-Agmatine; linker N-5 via X1) was 14 nM.
